From patent publication US20100291592A1, “NOVEL MARKER FOR SENSITIVITY AGAINST SULFONAMIDE COMPOUND” (priority 2006, published 2010)

Assays:
EGFR1 [1] = assay: EGFR1 expression level in cultured A549 (flow cytometry); format: cell-based, human; conditions: for EGFR1 expression level (% of control) A549: two days of culture, flow cytometry
Description: PC9 or A549 was suspended in RPMI1640 (containing 10% FBS) to 1×10^5 cells/ml. Then, 1 ml each of these suspensions was placed into each well of a 6-well plate and cultured in a 5% carbon dioxide incubator at 37° C. On the following day, 1 ml each of E7820 culture dilutions at respective concentrations (0-20 μM) was added to the cells in each well for further culture. After two days of culture, the cells were collected with trypsin-EDTA according to a routine procedure, which were suspended in PBS containing 0.5% BSA. Subsequently, an anti-EGFR1 antibody (BD Biosciences) was added to these suspensions and incubated at 4° C. for 30 minutes. Centrifugation and washing with PBS were carried out according to routine procedures to remove an excessive amount of the antibody. Then, an RPE-labeled anti-mouse IgG antibody was added to these suspensions and incubated at 4° C. for 30 minutes. Centrifugation and washing with PBS were carried out according to routine procedures to remove an excessive amount of the antibody. Finally, the EGFR1 expression level in PC9 and A549 were determined with FACSCalibur (Japan Becton, Dickinson and Company).

EGFR1 [2] = assay: EGFR1 expression level in HCT116 subcutaneous transplant model (western blotting); format: in vivo, nude mouse; conditions: for EGFR1 expression level (% of control) HCT116: HCT116 tumor in nude mouse
Description: HCT116 or WiDr was cultured in RPMI1640 (containing 10% FBS) in a 5% carbon dioxide incubator to about 80% confluence. The cells were collected with trypsin-EDTA according to a routine procedure and 5×10^7 cells/mL suspensions were prepared with a phosphate buffer. Then, 0.1 mL each of the resulting suspension was subcutaneously transplanted to the side of a nude mouse.
For HCT116, 23 days after the transplantation, E7820 was orally administered for 12.5 mg/kg, 50 mg/kg or 200 mg/kg twice a day for 3 days. On the other hand, for WiDr, 18 days after the transplantation, E7820 was orally administered for 50 mg/kg or 200 mg/kg twice a day for 7 days. Four days after the start of administration for HCT116 and 8 days after the start of administration for WiDr, tumors were removed to prepare tumor cell lysates with various protease inhibitors and a cell lysis solution containing 10% glycerol and 1% Triton X-100 in ice. For each tumor cell lysate, an equal amount of protein was fractionated by SDS-PAGE and transferred onto a nitrocellulose membrane (Hybond ECL, Amersham Biosciences). Then, western blotting was performed by using an anti-EGFR1 antibody (Santa Cruz Biotechnology) and horse radish peroxidase-labeled anti-mouse IgG antibody (secondary antibody) (Cell Signaling) according to a routine procedure.
Detection and quantification of each band were carried out as follows. First, each band was forced to chemically develop a color with Chemiluminescent Substrate (PIERCE), which was then captured as a digital image with Image Master VDS-CL (Amersham Pharmacia Biotech, Tokyo). The digital images were saved as TIF files and numerically converted with Image Master total Lab (version 1.00, Amersham Pharmacia Biotech, Tokyo).

[3] = tested on: human non-small cell lung cancer cell line (A549); assay: Anti-tumor effect on subcutaneous transplant model of A549; format: in vivo, nude mouse; conditions: 50 or 200 mg/kg orally twice a day for 7 days
Description: Human non-small-cell lung cancer cell line PC9 (obtained from Immuno-Biological laboratories Co., Ltd.), human non-small-cell lung cancer cell line A549 (obtained from Dainippon Pharmaceutical), human colon cancer cell line WiDr (obtained from Dainippon Pharmaceutical) and human colon cancer cell line HCT116 (obtained from ATCC) were cultured in RPMI1640 (containing 10% FBS) in a 5% carbon dioxide incubator at 37° C. to about 80% confluence, and the cells were collected with trypsin-EDTA. Using a phosphate buffer for PC9, WiDr and HCT116 and a 50% matrigel-containing phosphate buffer for A549, 5×10^7 cells/mL suspensions were prepared, respectively. Then, 0.1 mL each of the resulting cell suspensions was subcutaneously transplanted to the side of a nude mouse.
For PC9, 8 days after the transplantation, E7820 was orally administered for 50 mg/kg, 100 mg/kg or 200 mg/kg twice a day for 14 days. For A549, 24 days after the transplantation, E7820 was orally administered for 50 mg/kg or 200 mg/kg twice a day for 7 days. For WiDr, 11 days after the transplantation, E7820 was orally administered for 50 mg/kg, 100 mg/kg or 200 mg/kg twice a day for 14 days. […]
The major and minor axes of tumors were measured with Digimatic caliper (Mitsutoyo), and tumor volumes and relative tumor volumes were calculated according to the following formulae. […]

EGFR1 [4] = assay: EGFR1 expression and phosphorylation level in PC9 subcutaneous transplant model (western blotting); format: in vivo, nude mouse; conditions: for Phosphorylation level of EGFR1 (% of control) / EGFR1 expression level (% of control): PC9 tumor in nude mouse; for Phosphorylation level of EGFR1 (% of control): anti-EGFR pY1068 western blotting
Description: PC9 was cultured in RPMI1640 (containing 10% FBS) in a 5% carbon dioxide incubator to about 80% confluence. The cells were collected with trypsin-EDTA according to a routine procedure and 5×10^7 cells/mL suspension was prepared with a phosphate buffer. Then, 0.1 mL each of the resulting suspension was subcutaneously transplanted to the side of a nude mouse. Eight days after the transplantation, E7820 was orally administered for 50 mg/kg or 200 mg/kg twice a day for a week. One week after the start of sadministration, tumors were removed to prepare tumor cell lysates with various protease inhibitors and a cell lysis solution containing 10% glycerol and 1% Triton X-100 in ice. For each tumor cell lysate, an equal amount of protein was fractionated by SDS-PAGE and transferred onto a nitrocellulose membrane (Hybond ECL, Amersham Biosciences). Then, western blotting was performed by using an anti-EGFR1 antibody (Santa Cruz Biotechnology) or an anti-EGFR pY1068 antibody (anti-phosphorylated-EGFR1 antibody) (Cell Signaling) and horse radish peroxidase-labeled anti-mouse IgG antibody (secondary antibody) (Cell Signaling) according to a routine procedure.
Detection and quantification of each band were carried out as follows. First, each band was forced to chemically develop a color with Chemiluminescent Substrate (PIERCE), which was then captured as a digital image with Image Master VDS-CL (Amersham Pharmacia Biotech, Tokyo). The digital images were saved as TIF files and each band was numerically converted with Image Master total Lab (version 1.00, Amersham Pharmacia Biotech, Tokyo).

[5] = PC9 transplanted tumors, dose-dependent, western blotting

Cc1ccc(NS(=O)(=O)c2cccc(C#N)c2)c2[nH]cc(C#N)c12 [E7820, N-(3-cyano-4-methyl-1H-indole-7-yl)-3-cyanobenzenesulfonamide]
EGFR1 expression level (% of control) A549 (EGFR1 [1]; A549, E7820 0.01 μM): 93 % of control | EGFR1 expression level (% of control) A549 (EGFR1 [1]; A549, E7820 0.03 μM): 97 % of control | EGFR1 expression level (% of control) A549 (EGFR1 [1]; A549, E7820 0.1 μM): 95 % of control | EGFR1 expression level (% of control) A549 (EGFR1 [1]; A549, E7820 0.3 μM): 91 % of control | EGFR1 expression level (% of control) A549 (EGFR1 [1]; A549, E7820 1 μM): 80 % of control | EGFR1 expression level (% of control) A549 (EGFR1 [1]; A549, E7820 3 μM): 64 % of control | EGFR1 expression level (% of control) A549 (EGFR1 [1]; A549, E7820 10 μM): 73 % of control | Effect on EGFR1 expression level (in words) (EGFR1 [1]; cultured A549, flow cytometry): slightly decreased the EGFR1 expression level | Effect on EGFR1 expression level (in words) (EGFR1 [2]; HCT116 transplanted tumors, dose-dependent): decreased the EGFR1 expression level | EGFR1 expression level (% of control) HCT116 (EGFR1 [2]; 12.5 mg/kg orally twice a day for 3 days): 37 % of control | EGFR1 expression level (% of control) HCT116 (EGFR1 [2]; 50 mg/kg orally twice a day for 3 days): 47 % of control | EGFR1 expression level (% of control) HCT116 (EGFR1 [2]; 200 mg/kg orally twice a day for 3 days): 42 % of control | Anti-tumor effect (relative tumor volume) [3]: showed anti-tumor effects | Effect on EGFR1 expression level (in words) (EGFR1 [4]; [5]): decreased the EGFR1 expression level | Effect on phosphorylation of EGFR1 (in words) (EGFR1 [4]; [5]): inhibited phosphorylation of EGFR1 | Phosphorylation level of EGFR1 (% of control) (EGFR1 [4]; 50 mg/kg orally twice a day for a week): 59 % of control | EGFR1 expression level (% of control) (EGFR1 [4]; 50 mg/kg orally twice a day for a week, western blotting): 63 % of control | Phosphorylation level of EGFR1 (% of control) (EGFR1 [4]; 200 mg/kg orally twice a day for a week): 51 % of control | EGFR1 expression level (% of control) (EGFR1 [4]; 200 mg/kg orally twice a day for a week, western blotting): 40 % of control
